According to patent US8658383B2, “Sweet taste receptor-expressing construct, cell body expressing the same, and utilization thereof” (T. Hasegawa Co., Ltd., priority 2009, dated 2014):

Experiments:
[1] = target: T1, human sweet taste receptor (hT1R2+hT1R3) (Homo sapiens, UniProt Q7RTX0+Q8TE23); assay: Automated fluorescent calcium imaging (Fluo-4 AM, FlexStation 3) of cultured cell strain (A); type: cell-based; design: The sweet taste receptor subunits T1R2 and T1R3 include an entire part of each subunit
T1 sequence (Q8TE23 20-839): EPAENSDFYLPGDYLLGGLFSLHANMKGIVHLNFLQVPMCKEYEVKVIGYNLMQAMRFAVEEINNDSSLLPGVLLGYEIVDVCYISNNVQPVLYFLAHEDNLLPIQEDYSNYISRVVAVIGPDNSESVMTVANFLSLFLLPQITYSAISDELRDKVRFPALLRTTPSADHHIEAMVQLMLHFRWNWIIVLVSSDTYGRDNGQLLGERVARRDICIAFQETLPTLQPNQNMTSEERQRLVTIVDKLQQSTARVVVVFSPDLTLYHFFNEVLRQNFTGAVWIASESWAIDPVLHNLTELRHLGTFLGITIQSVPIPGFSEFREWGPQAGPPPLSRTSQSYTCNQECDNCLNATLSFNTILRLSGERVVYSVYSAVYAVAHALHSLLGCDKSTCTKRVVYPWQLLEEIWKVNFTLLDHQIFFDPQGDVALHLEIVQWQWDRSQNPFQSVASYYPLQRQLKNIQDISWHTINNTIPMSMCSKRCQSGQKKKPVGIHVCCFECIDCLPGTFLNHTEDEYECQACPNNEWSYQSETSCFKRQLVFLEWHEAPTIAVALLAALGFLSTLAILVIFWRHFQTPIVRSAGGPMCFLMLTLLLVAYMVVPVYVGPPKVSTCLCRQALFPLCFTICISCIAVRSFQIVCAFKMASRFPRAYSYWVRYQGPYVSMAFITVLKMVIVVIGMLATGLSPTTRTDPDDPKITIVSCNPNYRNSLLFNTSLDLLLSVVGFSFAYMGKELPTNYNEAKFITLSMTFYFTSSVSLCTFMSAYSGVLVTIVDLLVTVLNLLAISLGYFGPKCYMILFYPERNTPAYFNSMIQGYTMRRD
T1 sequence (Q7RTX0 21-852): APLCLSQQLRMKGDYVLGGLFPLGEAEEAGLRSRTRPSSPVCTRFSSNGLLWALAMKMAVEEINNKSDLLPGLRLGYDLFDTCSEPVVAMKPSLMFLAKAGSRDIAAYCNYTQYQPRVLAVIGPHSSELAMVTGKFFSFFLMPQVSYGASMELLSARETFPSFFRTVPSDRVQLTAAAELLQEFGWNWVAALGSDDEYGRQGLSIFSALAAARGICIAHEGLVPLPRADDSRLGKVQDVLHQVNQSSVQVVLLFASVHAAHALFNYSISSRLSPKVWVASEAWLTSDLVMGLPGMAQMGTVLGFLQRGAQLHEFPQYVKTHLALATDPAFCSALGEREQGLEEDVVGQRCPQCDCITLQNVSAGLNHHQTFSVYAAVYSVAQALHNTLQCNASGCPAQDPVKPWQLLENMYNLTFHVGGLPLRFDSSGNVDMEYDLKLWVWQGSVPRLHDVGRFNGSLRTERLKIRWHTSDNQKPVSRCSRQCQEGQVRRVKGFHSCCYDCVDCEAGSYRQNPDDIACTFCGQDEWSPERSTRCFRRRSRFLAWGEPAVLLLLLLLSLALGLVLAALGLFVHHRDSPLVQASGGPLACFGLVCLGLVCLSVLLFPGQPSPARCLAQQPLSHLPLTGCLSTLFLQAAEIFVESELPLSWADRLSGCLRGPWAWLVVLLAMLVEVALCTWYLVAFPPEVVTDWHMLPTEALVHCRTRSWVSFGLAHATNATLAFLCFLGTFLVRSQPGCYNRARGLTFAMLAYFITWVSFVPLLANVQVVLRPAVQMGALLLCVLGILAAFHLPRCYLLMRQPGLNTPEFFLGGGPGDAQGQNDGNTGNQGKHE
Description: Automated fluorescent imaging using FlexStation 3 (Molecular Devices) can be performed, for example, according to the following procedure.
First, cells are suspended in a low glucose ([…]) DMEM medium from which hygromycin B has been removed, and each 70 to 80 thousands of cells are seeded on each well of a 96-well plate (Corning, CellBIND Surface).
Then, after cultured at 37° C. for 24 hours, a medium is removed and replaced with a suitable amount of a HEPES (2-[4-(2-hydroxyethyl)-1-piperazinyl]ethanesulfonic acid) buffer, and a HEPES buffer containing a fluorescent calcium indicator (Fluo-4 AM attached to Molecular Devices, FLIPR Ca 4 Assay Kit) is further added. In order to facilitate transfer into cells, a fat-soluble acetoxymethyl group has been introduced into the fluorescent indicator Fluo-4 (excitation wavelength: 495 nm, fluorescent wavelength: 518 nm), and when it is added to a medium, it is easily taken into cells, and is hydrolyzed with an esterase in cells. Hydrolyzed Fluo-4 becomes difficult to be permeated through a cell membrane, and is diffused into cells to form a complex with calcium, emitting intense fluorescence. In a 96-well plate for fluorescent observation, there are a plastic bottom and a film bottom. Since a plate of the plastic bottom is satisfactory in adherability and growth of cells, it is used at a simultaneous assay using a multiplate reader for observing an entire well. However, since a plate of this plastic bottom is bad in transmission property of a UV wavelength, and inhibits transmission of excited light of Fura-2, Fluo-4 is used.
Then, after incubated at 27 to 37° C. for 30 to 60 minutes, by adding thereto a sweet taste substance at a particular concentration or a solution of a sweet taste substance and a substance to be tested, taste stimulation is performed at 27 to 37° C.
A physiological response of the cultured cell strain (A) to sucrose stimulation was analyzed by automated fluorescent imaging.
The cultured cell strain (A) prepared in Example 4 was trypsinized, and suspended in the DMEM medium, a cell density was measured, and each about 80 thousand cells were seeded on each well of a 96-well plate (Corning, CellBIND Surface).
After cultured at 37° C. for 24 hours, the medium was removed and replaced with 50 μl of a HEPES buffer, and 50 μl of a HEPES buffer containing a fluorescent calcium indicator (Fluo-4 AM attached to Molecular Devices, FLIPR Ca 4 Assay Kit) was further added. Then, this was incubated at 27° C. for 45 minutes to prepare cells to be subjected to automated fluorescent imaging.
Then, to the cells was added a HEPES buffer containing sucrose, so that a final concentration of sucrose became a concentration described in Table 1, and sucrose stimulation was performed at 27° C.
The vertical axis of FIG. 15 is a maximum of change (AF) in a fluorescent intensity between immediately after stimulation and 100 seconds after stimulation, that is, a response intensity of cells, and the horizontal axis indicates a sucrose concentration (mM) expressed by logarithm.
A physiological response of the cultured cell strain (A) to D-phenylalanine stimulation was analyzed by automated fluorescent imaging.

[2] = target: T1, human sweet taste receptor (hT1R2+hT1R3); assay: as above; type: cell-based; design: The sweet taste receptor subunits T1R2 and T1R3 include an entire part of each subunit; remark: listed apart in the source
[3] = target: T1, human sweet taste receptor (hT1R2+hT1R3); assay: Fluorescent microscope calcium imaging (Fura-2 AM) of cultured cell strains (A) to (C); conditions: cultured cell strain (A); Sucrose in a range of 20 mM to 1 M; FIG. 13
Description: Fluorescent calcium imaging using a fluorescent microscope can be performed according to the following procedure.
First, cells are suspended in a low glucose (1,000 mg/ml) DMEM medium, from which hygromycin B has been removed, and each 40 to 80 thousands cells are seeded on each well of a 96-well plate (Greiner, Lumox).
Then, after cultured at 37° C. for 24 to 48 hours, a medium is removed and is replaced with a suitable amount of a HEPES buffer, and a HEPES buffer containing a fluorescent calcium indicator (Fura-2 AM) is further added.
After incubated at 27 to 37° C. for 30 to 60 minutes, an extracellular fluorescent indicator is removed, and this is finally replaced with a suitable amount of a HEPES buffer, and is allowed to stand at room temperature for 10 to 20 minutes. By adding thereto a sweet taste substance at a particular concentration or a solution of a sweet taste substance and a substance to be tested, taste stimulation is performed at room temperature. In the fluorescent indicator Fura-2 (excitation wavelength: 340 nm/380 nm, fluorescent wavelength: 510 nm), a fluorescent intensity of excitation at 340 nm is increased, and a fluorescent intensity of excitation at 380 nm is reduced, when a calcium ion concentration is increased.
Cells loaded with Fura-2 AM were excited at 340 nm and 380 nm, and a fluorescent image observed at 510 nm was taken using a fluorescent microscope and a CCD camera. While the image was taken, Aspartame at a final concentration of 10 mM was administered to cells and, thereafter, the image was continuously taken. From the field of the taken image, 100 cells were randomly selected, and the response cell number was counted.
Cells loaded with Fura-2 AM were excited at 340 nm and 380 nm, and a fluorescent image observed at 510 nm was taken using a fluorescent microscope and a CCD camera. While the image was taken, Aspartame at each final concentration of 0.1 mM, 0.5 mM, 1 mM, 2 mM and 5 mM was administered to cells and then the image was continuously taken.
Cells loaded with Fura-2 AM were excited at 340 nm and 380 nm, and a fluorescent image observed at 510 nm was taken by using a fluorescent microscope and a CCD camera. While the image was taken, Sucrose at each final concentration of 20 mM, 50 mM, 100 mM, 200 mM, 500 mM and 1 M was administered to cells and then the image was continuously taken.
Cells loaded with Fura-2 AM were excited at 340 nm and 380 nm, and a fluorescent image observed at 510 nm was taken by using a fluorescent microscope and a CCD camera. While the image was taken, sucrose at final concentration of 500 mM was administered to cells and then the image was continuously taken.

SMILES: N[C@H](Cc1ccccc1)C(=O)O [D-phenylalanine]
- Change amount of fluorescent intensity (ΔF) ([1]; D-phenylalanine 1.5 mM, Average ± S.E., n = 2): 4.0 ± 0.8
- Change amount of fluorescent intensity (ΔF) ([1]; D-phenylalanine 2.2 mM, Average ± S.E., n = 2): 4.8 ± 0.6
- Change amount of fluorescent intensity (ΔF) ([1]; D-phenylalanine 3.3 mM, Average ± S.E., n = 2): 4.5 ± 0.6
- Change amount of fluorescent intensity (ΔF) ([1]; D-phenylalanine 4.9 mM, Average ± S.E., n = 2): 5.4 ± 0.3
- Change amount of fluorescent intensity (ΔF) ([1]; D-phenylalanine 7.4 mM, Average ± S.E., n = 2): 8.1 ± 0.7
- Change amount of fluorescent intensity (ΔF) ([1]; D-phenylalanine 11.1 mM, Average ± S.E., n = 2): 12.1 ± 0.2
- Change amount of fluorescent intensity (ΔF) ([1]; D-phenylalanine 16.7 mM, Average ± S.E., n = 2): 18.2 ± 0.9
- Change amount of fluorescent intensity (ΔF) ([1]; D-phenylalanine 25 mM, Average ± S.E., n = 2): 25.2 ± 1.2

SMILES: O=C1NS(=O)(=O)c2ccccc21 [saccharin]
- Change amount of fluorescent intensity (ΔF) ([1]; saccharin 0.04 mM, Average ± S.E., n = 2): 4.0 ± 0.8
- Change amount of fluorescent intensity (ΔF) ([1]; saccharin 0.08 mM, Average ± S.E., n = 2): 8.0 ± 0.6
- Change amount of fluorescent intensity (ΔF) ([1]; saccharin 0.16 mM, Average ± S.E., n = 2): 11.1 ± 1.3
- Change amount of fluorescent intensity (ΔF) ([1]; saccharin 0.31 mM, Average ± S.E., n = 2): 18.7 ± 2.4
- Change amount of fluorescent intensity (ΔF) ([1]; saccharin 0.63 mM, Average ± S.E., n = 2): 26.1 ± 4.0
- Change amount of fluorescent intensity (ΔF) ([1]; saccharin 1.25 mM, Average ± S.E., n = 2): 25.7 ± 1.1
- Change amount of fluorescent intensity (ΔF) ([1]; saccharin 2.50 mM, Average ± S.E., n = 2): 25.6 ± 0.2
- Change amount of fluorescent intensity (ΔF) ([1]; saccharin 5 mM, Average ± S.E., n = 2): 21.8 ± 1.2

SMILES: COc1ccc(CCC(=O)c2c(O)cc(O[C@@H]3O[C@H](CO)[C@@H](O)[C@H](O)[C@H]3O[C@@H]3O[C@@H](C)[C@H](O)[C@@H](O)[C@H]3O)cc2O)cc1O [NHDC, neohesperidin dihydrochalcone]
- Change amount of fluorescent intensity (ΔF) ([2]; NHDC 0.03 mM): 9.6
- Change amount of fluorescent intensity (ΔF) ([2]; NHDC 0.1 mM): 20.9
- Change amount of fluorescent intensity (ΔF) ([2]; NHDC 0.3 mM): 26.7
- Change amount of fluorescent intensity (ΔF) ([2]; NHDC 1 mM): 41.8
- Change amount of fluorescent intensity (ΔF) ([2]; NHDC 3 mM): 66.8
- Change amount of fluorescent intensity (ΔF) ([2]; NHDC 10 mM): 78.6
- Change amount of fluorescent intensity (ΔF) ([1]; NHDC 0.003 mM): 5.8
- Change amount of fluorescent intensity (ΔF) ([1]; NHDC 0.01 mM): 11.2

SMILES: OC[C@H]1O[C@@](CO)(O[C@H]2O[C@H](CO)[C@@H](O)[C@H](O)[C@H]2O)[C@@H](O)[C@@H]1O [Sucrose, sucrose]
- sweet taste response (fluorescent images) [3]: concentration-dependent sweet taste response was observed
- Change amount of fluorescent intensity (ΔF) ([1]; sucrose 3.1 mM, Average ± S.E., n = 6): 10.8 ± 2.0
- Change amount of fluorescent intensity (ΔF) ([1]; sucrose 6.3 mM, Average ± S.E., n = 6): 13.8 ± 2.9
- Change amount of fluorescent intensity (ΔF) ([1]; sucrose 12.5 mM, Average ± S.E., n = 6): 14.9 ± 2.7
- Change amount of fluorescent intensity (ΔF) ([1]; sucrose 25 mM, Average ± S.E., n = 6): 17.0 ± 2.6
- Change amount of fluorescent intensity (ΔF) ([1]; sucrose 50 mM, Average ± S.E., n = 6): 29.2 ± 2.3
- Change amount of fluorescent intensity (ΔF) ([1]; sucrose 100 mM, Average ± S.E., n = 6): 40.4 ± 2.5
- Change amount of fluorescent intensity (ΔF) ([1]; sucrose 200 mM, Average ± S.E., n = 6): 35.4 ± 3.2
